Tests used:
AtSWEET12 = molecular target: T1, AtSWEET12 (Arabidopsis thaliana, UniProt O82587); test: Oocyte efflux assay: [14C]-sugar efflux from Xenopus oocytes expressing AtSWEET12; format: cell-based; conditions: FIG. 4D
T1 construct: Primers for the full length ORF of AtSWEET11 (AtSWT11FattB1 and AtSWT11attB2) or AtSWEET12; expressed in transfected cells; host or cells: Xenopus oocytes injected with capped cRNA from pOO2-GW

[1] = molecular target: FRET sucrose sensor FLIPsuc90μΔ1V; conditions: detection level of the sucrose sensor; cited from earlier work

T1 sequence (O82587 whole entry): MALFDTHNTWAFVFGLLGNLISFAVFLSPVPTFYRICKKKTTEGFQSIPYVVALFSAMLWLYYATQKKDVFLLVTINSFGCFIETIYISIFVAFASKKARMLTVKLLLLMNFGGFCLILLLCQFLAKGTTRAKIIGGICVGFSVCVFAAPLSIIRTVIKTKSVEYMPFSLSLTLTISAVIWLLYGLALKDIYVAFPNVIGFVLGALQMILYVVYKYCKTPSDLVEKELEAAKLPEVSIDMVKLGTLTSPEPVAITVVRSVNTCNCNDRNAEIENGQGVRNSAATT

| Structure (SMILES) | Maltose efflux (AtSWEET12) | Kd [1] |
| --- | --- | --- |
| OC[C@H]1O[C@H](O[C@H]2[C@H](O)[C@@H](O)C(O)O[C@@H]2CO)[C@H](O)[C@@H](O)[C@@H]1O (mixture of isomers) [Maltose, maltose] | undetectable | – |
| OC[C@H]1O[C@@](CO)(O[C@H]2O[C@H](CO)[C@@H](O)[C@H](O)[C@H]2O)[C@@H](O)[C@@H]1O [sucrose] | – | ~90 µM |

Reference: US20140359899A1 (priority 2011, published 2014)
